# Positions count from the first letter of the chain named. Where “and” joins values, the source holds several entries; their conditions need not be identical. Equal values may be shown once. Read-outs that look alike come from different tables or passages of the source.
# What was measured:
# Format in all cases: cell-based
# hTA1 C178S = biological target: T1, hTA1 C178S (Homo sapiens, UniProt Q96RJ0, C178S); assay: GloSensor cAMP accumulation assay, C178S mutant; conditions: for C178S - Normalized Luminescence Counts (N=2): log[Compound], single replicates
# T1 construct: expressed in transfected cells; host or cells: HEK293T
# T1 sequence (Q96RJ0 1-339 C178S): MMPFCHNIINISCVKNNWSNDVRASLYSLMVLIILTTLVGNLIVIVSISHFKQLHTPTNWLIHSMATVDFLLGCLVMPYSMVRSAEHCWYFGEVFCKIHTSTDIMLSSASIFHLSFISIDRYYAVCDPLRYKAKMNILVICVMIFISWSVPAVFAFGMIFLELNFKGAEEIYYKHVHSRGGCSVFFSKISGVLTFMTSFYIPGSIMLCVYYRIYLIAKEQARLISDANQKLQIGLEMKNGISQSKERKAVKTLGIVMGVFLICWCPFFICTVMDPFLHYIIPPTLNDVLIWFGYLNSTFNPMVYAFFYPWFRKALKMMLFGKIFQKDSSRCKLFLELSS
# [1] = biological target: T2, β2AR-Nterm-hTA1-F112^3.41W (CryoEM Construct) (Homo sapiens, UniProt Q96RJ0, F112W); assay: GloSensor cAMP accumulation assay, cryoEM construct;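 note: cells transiently co-transfected with the receptor construct and GloSensor cAMP biosensor, luminescence read after 30 min compound exposure at room temperature in the dark as cAMP accumulation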;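 for Normalized Luminescence Counts (N=2): normalized to the maximum response of β-PEA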
# T2 construct: FLAG (N); 10xHis (N); TEV protease site (N); expressed in transfected cells; host or cells: HEK293T
# hTA1 V184P = biological target: T3, hTA1 V184P (Homo sapiens, UniProt Q96RJ0, V184P); assay: GloSensor cAMP accumulation assay, V184P mutant; conditions: for cAMP accumulation response, single replicate values (source data, Supplementary Figure 5): hTA1 V184P (N=2), log[Compound]
# T3 construct: expressed in transfected cells; host or cells: HEK293T
# T3 sequence (Q96RJ0 1-339 V184P): T1 sequence (Q96RJ0 1-339 C178S) with S178C, V184P
# hTA1 C88S = biological target: T4, hTA1 C88S (Homo sapiens, UniProt Q96RJ0, C88S); assay: GloSensor cAMP accumulation assay, C88S mutant
# T4 construct: expressed in transfected cells; host or cells: HEK293T
# T4 sequence (Q96RJ0 1-339 C88S): T1 sequence (Q96RJ0 1-339 C178S) with C88S, S178C
# hTA1 W264F = biological target: T5, hTA1 W264F (Homo sapiens, UniProt Q96RJ0, W264F); assay: GloSensor cAMP accumulation assay, W264F mutant;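 note: cells transiently transfected with receptor plus GloSensor, luminescence read 30 min after agonist addition at room temperature, concentration-response curves fitted by log(agonist) vs response regression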
# T5 construct: expressed in transfected cells; host or cells: HEK293T
# T5 sequence (Q96RJ0 1-339 W264F): T1 sequence (Q96RJ0 1-339 C178S) with S178C, W264F
# [2] = W246F mutant (so in the source) minus WT average
# T2 sequence (Q96RJ0 with tags, fused parts or gaps F112W): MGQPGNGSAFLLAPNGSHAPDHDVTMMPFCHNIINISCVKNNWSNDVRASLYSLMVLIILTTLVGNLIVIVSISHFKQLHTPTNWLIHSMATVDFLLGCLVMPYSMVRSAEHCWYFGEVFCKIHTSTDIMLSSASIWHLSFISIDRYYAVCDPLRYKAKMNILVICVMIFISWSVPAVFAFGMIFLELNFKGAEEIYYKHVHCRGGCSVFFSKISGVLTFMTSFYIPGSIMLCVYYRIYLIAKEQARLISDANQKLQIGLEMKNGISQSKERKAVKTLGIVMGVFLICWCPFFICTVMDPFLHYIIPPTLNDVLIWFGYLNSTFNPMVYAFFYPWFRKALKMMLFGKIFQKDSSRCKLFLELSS
smiles,measurement,setting,value
CCC(CC1COC(N)=N1)c1ccccc1 (stereo not drawn) [Ro5256390],"ΔpEC50 values (each mutant value - WT average), Mean","hTA1 C178S; C178S, each row one experiment (N=2), 3 replicates",-0.5545 and -0.2923
same,Emax,"hTA1 C178S; C178S, relative to β-PEA",120%
same,"Emax values, Mean","hTA1 C178S; C178S, β-PEA = 100, each row one experiment (N=2), 3 replicates",104.356 and 134.792
same,EC50,"hTA1 C178S; EC50, C178S, n=2",14.1 nM
same,C178S - Normalized Luminescence Counts (N=2),hTA1 C178S; M = -5,102.446 and 115.063 and 100.063 and 98.247 and 134.327 and 139.921
same,C178S - Normalized Luminescence Counts (N=2),hTA1 C178S; M = -5.522,112.587 and 101.839 and 98.2408 and 148.866 and 141.178 and 145.097
same,C178S - Normalized Luminescence Counts (N=2),hTA1 C178S; M = -6,99.8763 and 105.203 and 90.1566 and 163.316 and 171.125 and 157.632
same,C178S - Normalized Luminescence Counts (N=2),hTA1 C178S; M = -6.522,110.577 and 98.2408 and 97.8202 and 140.041 and 136.93 and 126.219
same,C178S - Normalized Luminescence Counts (N=2),hTA1 C178S; M = -7,89.6425 and 86.2313 and 90.5771 and 109.526 and 118.68 and 112.368
same,C178S - Normalized Luminescence Counts (N=2),hTA1 C178S; M = -7.522,61.5581 and 68.0535 and 67.1189 and 100.042 and 97.9478 and 96.7511
same,C178S - Normalized Luminescence Counts (N=2),hTA1 C178S; M = -8,35.9971 and 29.5951 and 33.2867 and 60.9705 and 68.8087 and 90.3489
same,C178S - Normalized Luminescence Counts (N=2),hTA1 C178S; M = -8.522,17.2585 and 16.3239 and 17.6791 and 41.704 and 41.2253 and 41.0458
same,C178S - Normalized Luminescence Counts (N=2),hTA1 C178S; M = -9,9.361 and 5.296 and 6.978 and 20.7921 and 25.9976 and 27.6132
same,C178S - Normalized Luminescence Counts (N=2),hTA1 C178S; M = -9.522,1.184 and 0.9499 and 2.959 and 8.825 and 6.193 and 11.0392
same,C178S - Normalized Luminescence Counts (N=2),hTA1 C178S; M = -10,1.651 and 2.539 and 1.885 and 5.9234 and 4.278 and 6.671
same,C178S - Normalized Luminescence Counts (N=2),hTA1 C178S; M = -10.522,0.4359 and -0.07812 and -0.265 and 1.256 and 0.02978 and 1.197
same,C178S - Normalized Luminescence Counts (N=2),hTA1 C178S; M = -11,0.9499 and 0.763 and 0.2957 and 5.146 and 2.064 and 5.0259
same,C178S - Normalized Luminescence Counts (N=2),hTA1 C178S; M = -11.522,-0.4987 and 1.2303 and -0.03139 and 3.65 and 2.333 and 2.932
same,C178S - Normalized Luminescence Counts (N=2),hTA1 C178S; M = -12,0.2023 and 1.184 and 0.4359 and 4.098 and 3.021 and 6.312
same,C178S - Normalized Luminescence Counts (N=2),hTA1 C178S; M = -12.522,0.2023 and -0.1249 and -0.03139 and 3.321 and 2.124 and 7.958
same,EC50,"hTA1 C178S; pEC50 values, Mean, C178S, each row one experiment (N=2), 3 replicates",19.1 nM and 10.5 nM
same,Emax,"hTA1 C178S; read-out: Span ± SEM (Emax normalized to β-PEA), C178S, n=2",120%
same,"ΔpEC50 values (each mutant value - WT average), Mean",[1]; Cryo EM Construct minus WT average,0.183 and 0.4564
same,Normalized Luminescence Counts (N=2),"[1]; CryoEM Construct, log[Compound], M = -5, single replicates",109.262 and 115.846 and 129.746 and 127.392
same,EC50,"[1]; EC50, CryoEM Construct, n=2",2.47 nM
same,EC50,"[1]; pEC50 values, Mean, Cryo EM Construct, mean of each independent experiment (3 replicates)",3.5 nM and 1.87 nM
same,Emax,[1]; read-out: Span ± SEM (Emax normalized to β-PEA),102 ± 2.88%
same,"cAMP accumulation response, single replicate values (source data, Supplementary Figure 5)",hTA1 V184P; M = -5,85.3904 and 101.684 and 66.3809 and 100.697 and 92.817 and 97.6917
same,"cAMP accumulation response, single replicate values (source data, Supplementary Figure 5)",hTA1 V184P; M = -5.522,66.0899 and 55.7123 and 71.6182 and 88.7852 and 51.5463 and 90.3979
same,"cAMP accumulation response, single replicate values (source data, Supplementary Figure 5)",hTA1 V184P; M = -6,83.0627 and 77.3404 and 73.6549 and 87.3191 and 55.1749 and 91.0943
same,"cAMP accumulation response, single replicate values (source data, Supplementary Figure 5)",hTA1 V184P; M = -6.522,79.7651 and 75.3037 and 85.0024 and 81.1248 and 49.1639 and 85.8896
same,"cAMP accumulation response, single replicate values (source data, Supplementary Figure 5)",hTA1 V184P; M = -7,89.6578 and 72.685 and 93.7313 and 87.2824 and 64.0448 and 74.7473
same,"cAMP accumulation response, single replicate values (source data, Supplementary Figure 5)",hTA1 V184P; M = -7.522,94.3132 and 66.4779 and 74.3338 and 84.4969 and 64.0814 and 78.046
same,"cAMP accumulation response, single replicate values (source data, Supplementary Figure 5)",hTA1 V184P; M = -8,62.0164 and 54.6454 and 40.6793 and 78.3026 and 66.3539 and 77.7161
same,"cAMP accumulation response, single replicate values (source data, Supplementary Figure 5)",hTA1 V184P; M = -8.522,37.1877 and 24.6764 and 37.2847 and 29.115 and 34.8328 and 41.87
same,"cAMP accumulation response, single replicate values (source data, Supplementary Figure 5)",hTA1 V184P; M = -9,15.9475 and 18.9541 and 11.3891 and 32.8169 and 25.9629 and 26.2194
same,"cAMP accumulation response, single replicate values (source data, Supplementary Figure 5)",hTA1 V184P; M = -9.522,4.018 and 3.436 and 4.212 and 11.3752 and 7.6 and 9.799
same,"cAMP accumulation response, single replicate values (source data, Supplementary Figure 5)",hTA1 V184P; M = -10,0.7205 and 0.9145 and 0.5265 and 3.678 and 2.945 and 4.778
same,"cAMP accumulation response, single replicate values (source data, Supplementary Figure 5)",hTA1 V184P; M = -10.522,-0.3463 and -0.9283 and 0.2356 and 0.1229 and 0.08625 and 0.5627
same,"cAMP accumulation response, single replicate values (source data, Supplementary Figure 5)",hTA1 V184P; M = -11,-1.316 (2×) and -1.4132 and 1.516 and -0.5368 and 1.039
same,"cAMP accumulation response, single replicate values (source data, Supplementary Figure 5)",hTA1 V184P; M = -11.522,-1.51 and -1.219 and -1.704 and 2.615 and 1.516 and 1.552
same,"cAMP accumulation response, single replicate values (source data, Supplementary Figure 5)",hTA1 V184P; M = -12,-1.316 and -1.51 and -1.801 and 15.6269 and 16.9097 and 12.5114
same,"cAMP accumulation response, single replicate values (source data, Supplementary Figure 5)",hTA1 V184P; M = -12.522,-1.4132 and -1.51 and -0.9283 and 2.505 and 1.149 and 1.736
same,"ΔpEC50 values (each mutant value - WT average), Mean",hTA1 V184P; hTA1 V184P mutant minus WT average,0.1338 and 0.2823
same,"Emax values, Mean","hTA1 V184P; hTA1 V184P mutant, β-PEA set to 100, each grid row a separate experiment, 3 replicates",78.2024
same,EC50,"hTA1 V184P; pEC50 values (Mean), hTA1 V184P mutant, Figure 3B source data, each grid row a separate experiment, 3 replicates",3.92 nM and 2.79 nM
same,EC50,"hTA1 V184P; pEC50 ± SEM, V184P, n=2",3.31 nM
same,Emax,"hTA1 V184P; read-out: Emax values (Mean), hTA1 V184P mutant, β-PEA set to 100, each grid row a separate experiment, 3 replicates",81.5%
same,Emax,"hTA1 V184P; read-out: Span ± SEM (Emax normalized to β-PEA), V184P, n=2",79.8 ± 1.63%
same,Emax values,"hTA1 C88S; C88S, Mean of fit per experiment",141.143 and 102.28
same,Emax,"hTA1 C88S; C88S, relative to β-PEA",122%
same,EC50,"hTA1 C88S; pEC50 values, C88S, Mean of fit per experiment",3.91 nM and 2.46 nM
same,EC50,"hTA1 C88S; pEC50 ± SEM, C88S, n=2",3.09 nM
same,Emax,"hTA1 C88S; read-out: Span ± SEM (Emax normalized to β-PEA), C88S, n=2",122%
same,"Emax values, Mean",hTA1 W264F,62.0152 and 91.1137
same,EC50,"hTA1 W264F; EC50, W264F, n=2",127 nM
same,ΔEmax values (each mutant value - WT average),hTA1 W264F; [2],-41.2891
same,ΔpEC50 values (each mutant value - WT average),hTA1 W264F; [2],-1.382 and -1.371
same,EC50,"hTA1 W264F; W246F mutant (so in the source), each line an independent experiment, 3 replicates, read-out: pEC50 values (Mean) (converted)",129 nM and 125 nM
same,Emax,"hTA1 W264F; read-out: Span ± SEM (Emax normalized to β-PEA), W264F, n=2",76.6 ± 14.5%

# — publication PMC10762035, “Molecular basis of human trace amine-associated receptor 1 activation” (Nature Communications, 2024)
